Data as given in PubChem BioAssay (NCI).
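Step 1: Grow cells in 96-well plates. Step 2: Expose to compound for 48 hours at 5 concentrations. Step 3: Interpolate endpoints linearly; if unreached, use highest concentration. Definition used: TGI = concentration required for complete inhibition of growth.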

Key:
Experiment in all cases: NCI-60 cell line screen, 48 h
OVCAR-5 ovarian = system: OVCAR-5 ovarian
SK-MEL-28 melanoma = system: SK-MEL-28 melanoma
MALME-3M melanoma = system: MALME-3M melanoma
M14 melanoma = system: M14 melanoma
A498 renal = system: A498 renal
HCC-2998 colon = system: HCC-2998 colon
SF-295 CNS = system: SF-295 CNS
MOLT-4 leukemia = system: MOLT-4 leukemia
A549 NSCLC = system: A549 NSCLC
OVCAR-3 ovarian = system: OVCAR-3 ovarian

SMILES	TGI (OVCAR-5 ovarian) [µM]	TGI (SK-MEL-28 melanoma) [µM]	TGI (MALME-3M melanoma) [µM]	TGI (M14 melanoma) [µM]	TGI (A498 renal) [µM]	TGI (HCC-2998 colon) [µM]	TGI (SF-295 CNS) [µM]	TGI (MOLT-4 leukemia) [µM]	TGI (A549 NSCLC) [µM]	TGI (OVCAR-3 ovarian) [µM]
O=C1c2ccccc2CN1c1ccc(O)cc1	> 100	> 100	> 100	> 100	> 100	> 100	> 100	> 100	> 100	> 100
CC(C)=CCc1c2c(c3occ(-c4ccc(O)c(O)c4)c(=O)c3c1O)C=CC(C)(C)O2	21.1	8.66	2.53	3.5	29	2.45	12.8	1.43	7.6	3.59
CC(C)(C)N=c1n(C(C)(C)C)oc(=O)n1C(C)(C)C	> 100	> 100	> 100	> 100	> 100	> 100	> 100	> 100	> 100	> 100
O=c1c2ncn(C3CC(O)C(CO)O3)c2nnn1Cc1ccccc1[N+](=O)[O-] (stereo not given)	> 100	> 100	> 100	> 100	> 100	> 100	> 100	> 100	> 100	> 100
